From PubChem BioAssay (NCI)
Where “and” joins values, the source holds several entries; their conditions need not be identical. Equal values may be shown once.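 All cell lines were grown in 96-well plates and treated with compound for 48 hours. GI50 marks 50% less growth. TGI marks complete inhibition of growth.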

Legend:
Assay in all cases: DTP human tumour cell line panel, 48 h
[1] = tested on: 786-0 renal
[2] = tested on: A498 renal
[3] = tested on: A549 NSCLC
[4] = tested on: ACHN renal
[5] = tested on: BT-549 breast
[6] = tested on: CAKI-1 renal
[7] = tested on: CCRF-CEM leukemia
[8] = tested on: COLO 205 colon
[9] = tested on: DU-145 prostate
[10] = tested on: EKVX NSCLC
[11] = tested on: HCC-2998 colon
[12] = tested on: HCT-116 colon
[13] = tested on: HCT-15 colon
[14] = tested on: HL-60(TB) leukemia
[15] = tested on: HOP-62 NSCLC
[16] = tested on: HS 578T breast
[17] = tested on: HT29 colon
[18] = tested on: IGROV1 ovarian
[19] = tested on: K-562 leukemia
[20] = tested on: KM12 colon
[21] = tested on: LOX IMVI melanoma
[22] = tested on: M14 melanoma
[23] = tested on: MALME-3M melanoma
[24] = tested on: MCF7 breast
[25] = tested on: MDA-MB-231 breast
[26] = tested on: MDA-MB-435
[27] = tested on: MDA-N
[28] = tested on: MOLT-4 leukemia
[29] = tested on: NCI-H226 lung
[30] = tested on: NCI-H23 lung
[31] = tested on: NCI-H460 lung
[32] = tested on: NCI-H522 lung
[33] = tested on: NCI/ADR-RES ovarian
[34] = tested on: OVCAR-3 ovarian
[35] = tested on: OVCAR-4 ovarian
[36] = tested on: OVCAR-5 ovarian
[37] = tested on: OVCAR-8 ovarian
[38] = tested on: PC-3 prostate
[39] = tested on: RPMI-8226 leukemia
[40] = tested on: SF-268 CNS
[41] = tested on: SF-295 CNS
[42] = tested on: SF-539 CNS
[43] = tested on: SK-MEL-2 melanoma
[44] = tested on: SK-MEL-28 melanoma
[45] = tested on: SK-MEL-5 melanoma
[46] = tested on: SK-OV-3 ovarian
[47] = tested on: SN12C renal
[48] = tested on: SNB-19 CNS
[49] = tested on: SNB-75 CNS
[50] = tested on: SR leukemia
[51] = tested on: SW-620 colon
[52] = tested on: T-47D breast
[53] = tested on: TK-10 renal
[54] = tested on: U251 CNS
[55] = tested on: UACC-257 melanoma
[56] = tested on: UACC-62 melanoma
[57] = tested on: UO-31 renal
[58] = tested on: HOP-92 NSCLC
[59] = tested on: RXF 393 renal

COC(=O)C1Cc2ccc3c(c2C1=O)CCCC3 (centres undefined)
TGI [1]: > 100 µM | TGI [2]: > 100 µM | TGI [3]: > 100 µM | TGI [4]: > 100 µM | TGI [5]: > 100 µM | TGI [6]: > 100 µM | TGI [7]: > 100 µM | TGI [8]: > 100 µM | TGI [9]: > 100 µM | TGI [10]: > 100 µM | TGI [11]: > 100 µM | TGI [12]: > 100 µM | TGI [13]: > 100 µM | TGI [14]: > 100 µM | TGI [15]: > 100 µM | TGI [16]: > 100 µM | TGI [17]: > 100 µM | TGI [18]: > 100 µM | TGI [19]: > 100 µM | TGI [20]: > 100 µM | TGI [21]: > 100 µM | TGI [22]: > 100 µM | TGI [23]: > 100 µM | TGI [24]: > 100 µM | TGI [25]: > 100 µM | TGI [26]: > 100 µM | TGI [27]: > 100 µM | TGI [28]: > 100 µM | TGI [29]: > 100 µM | TGI [30]: > 100 µM | TGI [31]: > 100 µM | TGI [32]: > 100 µM | TGI [33]: > 100 µM | TGI [34]: > 100 µM | TGI [35]: > 100 µM | TGI [36]: > 100 µM | TGI [37]: > 100 µM | TGI [38]: > 100 µM | TGI [39]: > 100 µM | TGI [40]: > 100 µM | TGI [41]: > 100 µM | TGI [42]: > 100 µM | TGI [43]: > 100 µM | TGI [44]: > 100 µM | TGI [45]: > 100 µM | TGI [46]: > 100 µM | TGI [47]: > 100 µM | TGI [48]: > 100 µM | TGI [49]: > 100 µM | TGI [50]: 82.9 µM | TGI [51]: > 100 µM | TGI [52]: > 100 µM | TGI [53]: > 100 µM | TGI [54]: > 100 µM | TGI [55]: > 100 µM | TGI [56]: > 100 µM | TGI [57]: > 100 µM

CSC1=NNC(SC)=NN1
TGI [1]: 0.328 µM | TGI [2]: > 1 µM | TGI [3]: 0.406 µM | TGI [4]: 0.304 µM | TGI [5]: 0.348 µM | TGI [6]: 0.311 µM | TGI [7]: > 1 µM | TGI [8]: 0.413 µM | TGI [9]: 0.345 µM | TGI [10]: 0.327 µM | TGI [11]: > 1 µM | TGI [12]: 0.303 µM | TGI [13]: 0.307 µM | TGI [14]: 0.407 µM | TGI [15]: 0.398 µM | TGI [58]: 316 nM | TGI [16]: 0.38 µM | TGI [17]: 0.316 µM | TGI [18]: 0.302 µM | TGI [19]: 0.308 µM | TGI [20]: 0.376 µM | TGI [21]: 0.287 µM | TGI [22]: 0.335 µM | TGI [23]: 0.289 µM | TGI [24]: 0.396 µM | TGI [25]: 0.458 µM | TGI [26]: 0.321 µM | TGI [27]: 0.319 µM | TGI [28]: 0.114 µM | TGI [29]: 0.389 µM | TGI [30]: 0.7 µM | TGI [31]: 0.385 µM | TGI [32]: 0.555 µM | TGI [33]: > 1 µM | TGI [34]: 0.359 µM | TGI [35]: 0.309 µM | TGI [36]: 0.324 µM | TGI [37]: 0.812 µM | TGI [38]: 0.303 µM | TGI [39]: > 1 µM | TGI [40]: 0.351 µM | TGI [41]: 0.34 µM | TGI [42]: 0.413 µM | TGI [43]: 0.281 µM | TGI [44]: 0.326 µM | TGI [45]: 0.354 µM | TGI [46]: 0.382 µM | TGI [47]: 0.322 µM | TGI [48]: 0.336 µM | TGI [50]: 0.0483 µM | TGI [51]: 0.307 µM | TGI [52]: 0.33 µM | TGI [53]: 0.357 µM | TGI [54]: 0.319 µM | TGI [55]: 0.258 µM | TGI [56]: 0.29 µM | TGI [57]: 0.328 µM

CC(C)=CCC/C(C)=C\CCC1(C)OC(=O)C2CC21 (centres undefined)
GI50 [1]: > 100 µM and 17.5 µM | TGI [1]: > 100 µM and 32.7 µM | TGI [2]: > 100 µM | GI50 [4]: > 100 µM and 25.1 µM | TGI [4]: > 100 µM and 59.8 µM | TGI [5]: > 100 µM | TGI [6]: > 100 µM and 43 µM | TGI [8]: > 100 µM | TGI [9]: > 100 µM | GI50 [10]: > 100 µM and 40 µM | TGI [10]: > 100 µM | TGI [11]: > 100 µM | GI50 [12]: 52.3 µM and 16.6 µM | TGI [12]: > 100 µM and 31.6 µM | GI50 [13]: 83.8 µM and 24.7 µM | TGI [13]: > 100 µM | TGI [14]: 49.9 µM and 26.6 µM | TGI [15]: > 100 µM | GI50 [16]: > 100 µM and 36.5 µM | TGI [16]: > 100 µM | GI50 [17]: 72.8 µM and 34.1 µM | TGI [17]: > 100 µM | GI50 [18]: > 100 µM and 18.2 µM | TGI [18]: > 100 µM and 37.2 µM | TGI [19]: 48.4 µM and 40.5 µM | GI50 [20]: 71.2 µM and 24.9 µM | TGI [20]: > 100 µM and 62.8 µM | TGI [21]: 81.8 µM and 29 µM | TGI [23]: > 100 µM | GI50 [24]: 64.9 µM and 21.6 µM | TGI [24]: > 100 µM and 52.6 µM | TGI [25]: > 100 µM | GI50 [26]: 73.9 µM and 23.1 µM | TGI [26]: > 100 µM and 56.7 µM | GI50 [27]: > 100 µM and 23.8 µM | TGI [27]: > 100 µM and 85.1 µM | TGI [28]: 50 µM and 35 µM | GI50 [29]: 48.4 µM and 18.8 µM | TGI [29]: > 100 µM and 42.6 µM | TGI [30]: > 100 µM | GI50 [31]: 41.7 µM and 14 µM | TGI [31]: > 100 µM and 27 µM | GI50 [32]: 52.4 µM and 19.2 µM | TGI [32]: > 100 µM and 47.1 µM | TGI [33]: > 100 µM | TGI [34]: > 100 µM | GI50 [35]: > 100 µM and 19.5 µM | TGI [35]: > 100 µM and 42.6 µM | TGI [36]: > 100 µM | GI50 [37]: 71.6 µM and 20.3 µM | TGI [37]: > 100 µM and 45.5 µM | TGI [38]: > 100 µM and 85.2 µM | TGI [39]: 68.1 µM and 44.2 µM | TGI [59]: 92.3 µM | TGI [40]: > 100 µM | GI50 [41]: > 100 µM and 49.8 µM | TGI [41]: > 100 µM | TGI [43]: > 100 µM | GI50 [44]: > 100 µM and 37.5 µM | TGI [44]: > 100 µM | TGI [45]: > 100 µM | GI50 [47]: > 100 µM and 26.4 µM | TGI [47]: > 100 µM and 64.2 µM | TGI [48]: > 100 µM | TGI [49]: > 100 µM | GI50 [50]: 24.3 µM and 6.4 µM | TGI [50]: > 100 µM and 37.2 µM | GI50 [51]: 84.1 µM and 33.8 µM | TGI [51]: > 100 µM | TGI [52]: > 100 µM | TGI [53]: > 100 µM | GI50 [54]: 51.5 µM and 24.1 µM | TGI [54]: > 100 µM and 61.4 µM | TGI [55]: > 100 µM | GI50 [56]: > 100 µM and 34.4 µM | TGI [56]: > 100 µM | TGI [57]: > 100 µM

N#CC(C#N)N=Nc1ccc(-c2nc3ccccc3o2)cc1
TGI [1]: 30.8 µM | TGI [2]: 31.2 µM | TGI [3]: 47.6 µM | TGI [4]: 41.6 µM | TGI [5]: 31.8 µM | TGI [8]: 23.9 µM | TGI [9]: 31.5 µM | TGI [10]: 29.9 µM | TGI [11]: 14.7 µM | TGI [12]: 19.5 µM | TGI [13]: 38.5 µM | TGI [14]: 40.2 µM | TGI [15]: 38.5 µM | TGI [58]: > 100000 nM | TGI [16]: > 100 µM | TGI [17]: 27.8 µM | TGI [18]: 93.2 µM | TGI [19]: 54.7 µM | TGI [20]: 50.5 µM | TGI [21]: 29 µM | TGI [22]: 31.2 µM | TGI [23]: > 100 µM | TGI [24]: 36.2 µM | TGI [25]: 61.7 µM | TGI [26]: 52.9 µM | TGI [27]: 45.2 µM | TGI [28]: 37 µM | TGI [30]: 29.9 µM | TGI [31]: 30.4 µM | TGI [32]: 73.7 µM | TGI [33]: 62.9 µM | TGI [34]: 9.77 µM | TGI [35]: > 100 µM | TGI [36]: 36.1 µM | TGI [37]: > 100 µM | TGI [38]: 29.2 µM | TGI [40]: > 100 µM | TGI [42]: 26.1 µM | TGI [43]: 31.4 µM | TGI [44]: 32.3 µM | TGI [45]: 5.56 µM | TGI [46]: 43.7 µM | TGI [47]: 30.5 µM | TGI [48]: 60 µM | TGI [49]: 66.5 µM | TGI [50]: 42.6 µM | TGI [51]: 28.1 µM | TGI [52]: 25.2 µM | TGI [53]: 38.2 µM | TGI [54]: 29.7 µM | TGI [55]: 17.8 µM | TGI [56]: 26.1 µM | TGI [57]: 26 µM
